From patent US20100029761A1, “NOVEL COMPOUNDS, PHARMACEUTICAL COMPOSITIONS CONTAINING SAME, AND METHODS OF USE FOR SAME” (priority 2005, published 2010)
Converted amounts (≈) assume the structure as drawn. Like-named read-outs stand apart in the source and are kept apart here.

Columns and labels:
purified human FAS = biological target: T1, purified human FAS (Homo sapiens, UniProt P49327); test: Measurement of FAS enzymatic activity (malonyl-CoA dependent NADPH oxidation); format: biochemical
T1 construct: Human FAS was purified from cultured ZR-75-1 human breast cancer cells obtained from the American Type Culture Collection; endogenous in cells; host or cells: ZR-75-1 human breast cancer cells (ATCC); PEG precipitations and Mono Q anion exchange
T1 sequence (P49327 whole entry): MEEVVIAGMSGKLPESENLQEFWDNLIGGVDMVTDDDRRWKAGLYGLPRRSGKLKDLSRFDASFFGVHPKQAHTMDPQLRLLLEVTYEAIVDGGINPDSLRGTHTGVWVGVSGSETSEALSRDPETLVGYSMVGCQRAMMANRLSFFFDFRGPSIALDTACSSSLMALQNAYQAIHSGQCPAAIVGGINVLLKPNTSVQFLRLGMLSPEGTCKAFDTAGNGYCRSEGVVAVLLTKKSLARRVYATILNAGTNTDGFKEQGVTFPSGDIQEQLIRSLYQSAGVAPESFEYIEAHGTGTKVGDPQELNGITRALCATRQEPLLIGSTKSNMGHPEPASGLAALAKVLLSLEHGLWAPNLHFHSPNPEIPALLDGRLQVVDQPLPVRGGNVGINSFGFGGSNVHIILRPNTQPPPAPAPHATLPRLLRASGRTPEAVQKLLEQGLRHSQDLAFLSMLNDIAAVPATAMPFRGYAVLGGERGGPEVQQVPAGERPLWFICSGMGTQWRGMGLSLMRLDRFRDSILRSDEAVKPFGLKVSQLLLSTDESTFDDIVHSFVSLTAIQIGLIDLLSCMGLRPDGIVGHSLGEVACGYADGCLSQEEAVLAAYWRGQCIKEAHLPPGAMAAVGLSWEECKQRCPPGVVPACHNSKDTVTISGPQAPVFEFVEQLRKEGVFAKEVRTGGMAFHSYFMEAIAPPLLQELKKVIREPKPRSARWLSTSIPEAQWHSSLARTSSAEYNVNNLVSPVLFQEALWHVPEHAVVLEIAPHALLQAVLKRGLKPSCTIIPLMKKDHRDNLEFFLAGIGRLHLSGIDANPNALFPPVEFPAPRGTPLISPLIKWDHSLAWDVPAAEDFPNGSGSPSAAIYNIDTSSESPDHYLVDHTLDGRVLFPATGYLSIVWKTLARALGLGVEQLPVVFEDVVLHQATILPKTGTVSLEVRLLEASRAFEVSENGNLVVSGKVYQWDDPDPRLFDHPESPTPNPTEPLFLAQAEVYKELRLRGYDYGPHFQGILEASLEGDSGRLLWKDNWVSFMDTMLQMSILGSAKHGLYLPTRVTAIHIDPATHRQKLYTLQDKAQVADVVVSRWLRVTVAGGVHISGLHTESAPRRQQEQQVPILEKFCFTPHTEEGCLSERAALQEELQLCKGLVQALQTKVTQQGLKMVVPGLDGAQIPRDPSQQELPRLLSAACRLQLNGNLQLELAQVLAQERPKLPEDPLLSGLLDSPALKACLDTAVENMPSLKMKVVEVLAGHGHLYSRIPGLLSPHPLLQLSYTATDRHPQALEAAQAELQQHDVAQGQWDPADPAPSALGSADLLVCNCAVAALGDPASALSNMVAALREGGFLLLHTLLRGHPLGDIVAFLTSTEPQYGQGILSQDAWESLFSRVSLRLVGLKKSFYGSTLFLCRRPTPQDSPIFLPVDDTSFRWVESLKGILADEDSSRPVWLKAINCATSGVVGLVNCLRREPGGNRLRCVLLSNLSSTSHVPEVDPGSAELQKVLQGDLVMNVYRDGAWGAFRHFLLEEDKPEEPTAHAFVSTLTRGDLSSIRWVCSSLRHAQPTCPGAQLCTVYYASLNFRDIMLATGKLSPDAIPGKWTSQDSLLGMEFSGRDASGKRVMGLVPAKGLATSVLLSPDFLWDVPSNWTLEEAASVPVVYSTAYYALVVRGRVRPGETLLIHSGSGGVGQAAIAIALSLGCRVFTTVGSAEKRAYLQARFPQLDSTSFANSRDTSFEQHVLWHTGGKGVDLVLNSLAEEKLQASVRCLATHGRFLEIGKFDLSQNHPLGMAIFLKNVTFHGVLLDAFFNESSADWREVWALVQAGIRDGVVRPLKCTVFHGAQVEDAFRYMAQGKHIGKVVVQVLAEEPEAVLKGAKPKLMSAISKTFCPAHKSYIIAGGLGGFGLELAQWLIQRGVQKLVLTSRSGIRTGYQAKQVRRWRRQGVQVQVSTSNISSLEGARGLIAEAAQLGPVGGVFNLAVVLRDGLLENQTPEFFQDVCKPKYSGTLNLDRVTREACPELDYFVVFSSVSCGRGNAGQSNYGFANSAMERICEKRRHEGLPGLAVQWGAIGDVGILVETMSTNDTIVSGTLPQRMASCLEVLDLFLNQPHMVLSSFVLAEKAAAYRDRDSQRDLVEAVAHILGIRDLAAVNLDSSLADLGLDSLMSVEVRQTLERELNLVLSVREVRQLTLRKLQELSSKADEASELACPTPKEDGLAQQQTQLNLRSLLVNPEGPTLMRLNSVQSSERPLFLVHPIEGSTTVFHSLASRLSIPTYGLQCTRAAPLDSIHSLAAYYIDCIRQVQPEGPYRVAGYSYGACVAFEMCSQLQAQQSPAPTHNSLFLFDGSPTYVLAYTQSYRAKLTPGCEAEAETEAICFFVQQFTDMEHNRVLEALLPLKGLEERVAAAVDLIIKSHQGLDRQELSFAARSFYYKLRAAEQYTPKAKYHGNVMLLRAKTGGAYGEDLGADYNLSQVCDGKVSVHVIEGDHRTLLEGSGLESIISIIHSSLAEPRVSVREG
Method: Human FAS was purified from cultured ZR-75-1 human breast cancer cells obtained from the American Type Culture Collection. The procedure, adapted from Linn et al., 1981, and Kuhajda et al., 1994, utilizes hypotonic lysis, successive polyethyleneglycol (PEG) precipitations, and anion exchange chromatography. ZR-75-1 cells are cultured at 37° C. with 5% CO2 in RPMI culture medium with 10% fetal bovine serum, penicillin and streptomycin.
Ten T150 flasks of confluent cells are lysed with 1.5 ml lysis buffer (20 mM Tris-HCl, pH 7.5, 1 mM EDTA, 0.1 mM phenylmethanesulfonyl fluoride (PMSF), 0.1% Igepal CA-630) and dounce homogenized on ice for 20 strokes. The lysate is centrifuged in JA-20 rotor (Beckman) at 20,000 rpm for 30 minutes at 4° C. and the supernatant is brought to 42 ml with lysis buffer. A solution of 50% PEG 8000 in lysis buffer is added slowly to the supernatant to a final concentration of 7.5%. After rocking for 60 minutes at 4° C., the solution is centrifuged in JA-20 rotor (Beckman) at 15,000 rpm for 30 minutes at 4° C. Solid PEG 8000 is then added to the supernatant to a final concentration of 15%. After the rocking and centrifugation is repeated as above, the pellet is resuspended overnight at 4° C. in 10 ml of Buffer A (20 mM K2HPO4, pH 7.4). After […] filtration, the protein solution is applied to a Mono Q 5/5 anion exchange column (Pharmacia). The column is washed for 15 minutes with buffer A at 1 ml/minute, and bound material is eluted with a linear 60-ml gradient over 60 minutes to 1 M KCl. FAS (MW˜270 kD) typically elutes at 0.25 M KCl in three 0.5 ml fractions identified using 4-15% SDS-PAGE with Coomassie G250 stain (Bio-Rad). FAS protein concentration is determined using the Coomassie Plus Protein Assay Reagent (Pierce) according to manufacturer's specifications using BSA as a standard. This procedure results in substantially pure preparations of FAS (>95%) as judged by Coomassie-stained gels.
FAS activity is measured by monitoring the malonyl-CoA dependent oxidation of NADPH spectrophotometrically at OD340 in 96-well plates (Dils et al and Arslanian et al, 1975). Each well contains 2 μg purified FAS, 100 mM K2HPO4, pH 6.5, 1 mM dithiothreitol (Sigma), and 187.5 μM β-NADPH (Sigma). Stock solutions of inhibitors are prepared in DMSO at 2, 1, and 0.5 mg/ml resulting in final concentrations of 20, 10, and 5 μg/ml when 1 μl of stock is added per well. For each experiment, cerulenin (Sigma) is run as a positive control along with DMSO controls, inhibitors, and blanks (no FAS enzyme) all in duplicate.
The assay is performed on a Molecular Devices SpectraMax Plus Spectrophotometer. The plate containing FAS, buffers, inhibitors, and controls are placed in the spectrophotometer heated to 37° C. Using the kinetic protocol, the wells are blanked on duplicate wells containing 100 μl of 100 mM K2HPO4, pH 6.5 and the plate is read at OD340 at 10 sec intervals for 5 minutes to measure any malonyl-CoA independent oxidation of NADPH. The plate is removed from the spectrophotometer and malonyl-CoA (67.4 μM, final concentration per well) and […] (61.8 μM, final concentration per well) are added to each well except to the blanks. The plate is read again as above with the kinetic protocol to measure the malonyl-CoA dependent NADPH oxidation. The difference between the Δ OD340 for the malonyl-CoA dependent and non-malonyl-CoA dependent NADPH oxidation is the specific FAS activity. Because of the purity of the FAS preparation, non-malonyl-CoA dependent NADPH oxidation is negligible.
The concentration of compound yielding 50% inhibition of FAS is the IC50. Graphs of Δ OD340 versus time are plotted by the SOFTmax PRO software (Molecular Devices) for each compound concentration. Computation of linear regression, best-fit line, r^2, and 95% confidence intervals are calculated using Prism Version 3.0 (Graph Pad Software).

[1] = test system: MCF-7 human breast cancer cells; test: Crystal violet cell growth assay; format: cell-based; settings: MCF7, MCF-7, 72 hours, read-out: Cr. Violet (IC50)
Method: The crystal violet assay measures cell growth but not cytotoxicity. This assay employs crystal violet staining of fixed cells in 96-well plates with subsequent solubilization and measurement of OD490 on a spectrophotometer. The OD490 corresponds to cell growth per unit time measured. Cells are treated with the compounds of interest or vehicle controls and IC50 for each compound is computed.
To measure the cytotoxicity of specific compounds against cancer cells, 5×10^4 MCF-7 human breast cancer cells, obtained from the American Type Culture Collection are plated per well in 24 well plates in DMEM medium with 10% fetal bovine serum, penicillin, and streptomycin. Following overnight culture at 37° C. and 5% CO2, the compounds to be tested, dissolved in DMSO, are added to the wells in 1 μl volume at the following concentrations: 50, 40, 30, 20, and 10 μg/ml in triplicate. Additional concentrations are tested if required. 1 μl of DMSO is added to triplicate wells are the vehicle control. C75 is run at 10, and 5 μg/ml in triplicate as positive controls.
After 72 hours of incubation, cells are stained with 0.5 ml of Crystal Violet stain (0.5% in 25% methanol) in each well. After 10 minutes, wells are rinsed, air dried, and then solubilized with 0.5 ml 10% sodium dodecylsulfate with shaking for 2 hours. Following transfer of 100 μl from each well to a 96-well plate, plates are read at OD490 on a Molecular Devices SpectraMax Plus Spectrophotometer Average OD490 values are computed using SOFTmax Pro Software (Molecular Devices) and IC50 values are determined by linear regression analysis using Prism version 3.02 (Graph Pad Software, San Diego).

[2] = marked (SB), abbreviation not defined, read-out: FAS (IC50) (SB) (converted)

SMILES	IC50 (purified human FAS; [2]) [µM]	IC50 [1] [µg/mL]	Solubility remark under FAS (IC50) (purified human FAS)	FAS (IC50) (purified human FAS; purified human FAS, OD340)	IC50 (purified human FAS; purified human FAS, OD340, read-out: FAS (IC50) (converted)) [µM]
CCCCCCCCC1OC(=O)C(OC(=O)OCC)=C1C(=O)OCC (stereo not drawn) [Compound 7]	222	–	–	–	–
CCCCCCCCC1OC(=O)C(OCc2ccccc2)=C1C(=O)OCC (stereo not drawn) [Compound 5]	–	17.1 (≈ 45.7 µM)	Solubility problems	Neg	–
CCCCCCCCC1OC(=O)C(=O)C1C(=O)OCC (stereo not drawn) [Compound 1]	–	28 (≈ 98.5 µM)	–	–	65.1
CCCCC1OC(=O)C(O)=C1C(=O)OCC (stereo not drawn) [Compound 2]	1230	41.9 (≈ 184 µM)	–	Neg	–

The remaining lines, values ahead:

IC50 (purified human FAS; [2]) [µM]	IC50 [1] [µg/mL]	Solubility remark under FAS (IC50) (purified human FAS)	FAS (IC50) (purified human FAS; purified human FAS, OD340)	IC50 (purified human FAS; purified human FAS, OD340, read-out: FAS (IC50) (converted)) [µM]	SMILES
–	10.7 (≈ 35.9 µM)	Solubility problems	Neg	–	CCCCCCCCC1OC(=O)C(OC)=C1C(=O)OCC (stereo not drawn) [Compound 4]
–	22 (≈ 67.8 µM)	Solubility problems	Neg	–	C=CCOC1=C(C(=O)OCC)C(CCCCCCCC)OC1=O (stereo not drawn) [Compound 6]
121	35.4 (≈ 95.6 µM)	–	Neg	–	CCCCCCCCC1OC(=O)C(OCC(=O)OCC)=C1C(=O)OCC (stereo not drawn) [Compound 3]
